Biological target: T1, chimeric human H3 receptor (Homo sapiens, UniProt Q9Y5N1)
T1 construct: made in house; host or cells: Sf9 insect cells (baculovirus); P2 membrane preparation
Test: Chimeric human H3 receptor GTP binding assay (agonist-stimulated GTP-gamma35S binding, Example 7)
Format: biochemical
Conditions: Table II; "*" = Ki in assay of Example 7 less than 1 micromolar
Procedure, shortened: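 Sf9 membranes co-expressing chimeric human H3 receptor and heterotrimeric G-protein, 35 μg/tube, in pH 7.4 Tris buffer with 10 μM GDP. Test compounds (10^−10–10^−6 M) competed against 1 μM histamine, […] GTP-gamma35S, 60 min at room temperature. Filter-bound radioactivity counted; IC50 converted to Ki by Cheng-Prusoff. Agonism/inverse agonism tested without histamine (EC50).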

T1 sequence (Q9Y5N1 with tags, fused parts or gaps): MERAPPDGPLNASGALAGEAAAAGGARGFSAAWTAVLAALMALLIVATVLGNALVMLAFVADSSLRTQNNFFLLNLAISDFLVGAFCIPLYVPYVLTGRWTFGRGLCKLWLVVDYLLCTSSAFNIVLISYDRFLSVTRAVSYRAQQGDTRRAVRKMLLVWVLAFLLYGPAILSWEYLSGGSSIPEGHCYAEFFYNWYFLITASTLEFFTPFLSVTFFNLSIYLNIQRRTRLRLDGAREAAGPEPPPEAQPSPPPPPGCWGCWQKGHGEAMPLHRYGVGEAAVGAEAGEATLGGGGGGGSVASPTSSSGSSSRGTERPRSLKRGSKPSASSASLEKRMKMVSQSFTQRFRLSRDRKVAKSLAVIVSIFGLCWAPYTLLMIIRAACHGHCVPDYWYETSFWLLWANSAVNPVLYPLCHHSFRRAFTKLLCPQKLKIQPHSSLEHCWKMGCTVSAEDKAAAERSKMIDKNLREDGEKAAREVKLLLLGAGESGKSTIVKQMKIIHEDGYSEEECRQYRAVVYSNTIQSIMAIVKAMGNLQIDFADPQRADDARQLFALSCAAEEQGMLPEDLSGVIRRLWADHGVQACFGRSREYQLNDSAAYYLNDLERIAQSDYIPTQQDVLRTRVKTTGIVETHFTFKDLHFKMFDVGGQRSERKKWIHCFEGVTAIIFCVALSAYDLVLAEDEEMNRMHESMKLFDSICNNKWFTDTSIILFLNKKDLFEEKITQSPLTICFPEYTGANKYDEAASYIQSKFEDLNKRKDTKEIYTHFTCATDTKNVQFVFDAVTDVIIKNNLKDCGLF

Ki, < 1000 nM:
CC1CCC[C@H]2CN(C(=O)CN3CCc4nc(N5CCOCC5)ncc4C3)CCN12 (some centres unmarked) [Compound 186, 6-[2-(6-methyloctahydro-2H-pyrido[1,2-a]pyrazin-2-yl)-2-oxoethyl]-2-morpholin-4-yl-5,6,7,8-tetrahydropyrido[4,3-d]pyrimidine]
CC1CN(c2ncc3c(n2)CCN(CC(=O)N2CCN(C4CCC4)CC2)C3)CC(C)O1 (centres unmarked) [Compound 187, 6-[2-(4-cyclobutylpiperazin-1-yl)-2-oxoethyl]-2-(2,6-dimethylmorpholin-4-yl)-5,6,7,8-tetrahydropyrido[4,3-d]pyrimidine]
CC(C)[C@@H]1CN(C(=O)CN2CCc3cc(-c4cncnc4)ccc3C2)CCN1C1CCC1 [Compound 189, 2-{2-[(3R)-4-cyclobutyl-3-isopropylpiperazin-1-yl]-2-oxoethyl}-6-pyrimidin-5-yl-1,2,3,4-tetrahydroisoquinoline]
Cc1ccc(-c2ccc3c(c2)CCN(CC(=O)N2CCN(C4CCCC4C)CC2)C3)nn1 (centres unmarked) [Compound 190, 2-{2-[4-(2-methylcyclopentyl)piperazin-1-yl]-2-oxoethyl}-6-(6-methylpyridazin-3-yl)-1,2,3,4-tetrahydroisoquinoline]
CC1CCCC1N1CCN(C(=O)CN2CCc3cc(-c4cccnn4)ccc3C2)CC1 (centres unmarked) [Compound 191, 2-{2-[4-(2-methylcyclopentyl)piperazin-1-yl]-2-oxoethyl}-6-pyridazin-3-yl-1,2,3,4-tetrahydroisoquinoline]
Cn1cc(-c2ccc3c(c2)CCN(CC(=O)N2CCN(C4CCC4)CC2)C3)ccc1=O [Compound 192, 5-{2-[2-(4-cyclobutylpiperazin-1-yl)-2-oxoethyl]-1,2,3,4-tetrahydroisoquinolin-6-yl}-1-methylpyridin-2(1H)-one]
O=C(CN1CCc2cc(-n3ncccc3=O)ccc2C1)N1CCN(C2CCC2)CC1 [Compound 193, 2-{2-[2-(4-cyclobutylpiperazin-1-yl)-2-oxoethyl]-1,2,3,4-tetrahydroisoquinolin-6-yl}pyridazin-3(2H)-one]
O=C(CN1CCc2cc(OCc3ccccc3)ccc2C1)N1CCN(C2CCC2)CC1 [Compound 194, 6-(benzyloxy)-2-[2-(4-cyclobutylpiperazin-1-yl)-2-oxoethyl]-1,2,3,4-tetrahydroisoquinoline]
O=C(CN1CCc2cc(O)ccc2C1)N1CCN(C2CCC2)CC1 [Compound 195, 2-[2-(4-cyclobutylpiperazin-1-yl)-2-oxoethyl]-1,2,3,4-tetrahydroisoquinolin-6-ol]
O=C(CN1CCc2cc(OC3CCCC3)ccc2C1)N1CCN(C2CCC2)CC1 [Compound 196, 2-[2-(4-cyclobutylpiperazin-1-yl)-2-oxoethyl]-6-(cyclopentyloxy)-1,2,3,4-tetrahydroisoquinoline]
CC(C)Oc1ccc2c(c1)CCN(CC(=O)N1CCN(C3CCC3)CC1)C2 [Compound 197, 2-[2-(4-cyclobutylpiperazin-1-yl)-2-oxoethyl]-6-isopropoxy-1,2,3,4-tetrahydroisoquinoline]
O=C(CN1CCc2cc(Oc3ccc(C(F)(F)F)cn3)ccc2C1)N1CCN(C2CCC2)CC1 [Compound 198, 2-[2-(4-cyclobutylpiperazin-1-yl)-2-oxoethyl]-6-{[5-(trifluoromethyl)pyridin-2-yl]oxy}-1,2,3,4-tetrahydroisoquinoline]
COc1ccc(-n2cc3c(n2)CCN(CC(=O)N2CCN(C4CCC4)CC2)C3)nn1 [Compound 199, 5-[2-(4-cyclobutylpiperazin-1-yl)-2-oxoethyl]-2-(6-methoxypyridazin-3-yl)-4,5,6,7-tetrahydro-2H-pyrazolo[4,3-c]pyridine]
Cc1ccc(-n2cc3c(n2)CCN(CC(=O)N2CCN(C4CCC4)CC2)C3)nn1 [Compound 200, 5-[2-(4-cyclobutylpiperazin-1-yl)-2-oxoethyl]-2-(6-methylpyridazin-3-yl)-4,5,6,7-tetrahydro-2H-pyrazolo[4,3-c]pyridine]

Source: US20110082130A1 (LIGAND PHARMACEUTICALS, INC., priority 2006, published 2011)
